Experimental data reported in PMC6864781, “Synthesis, Antitumor Activity, and Docking Analysis of New Pyrido[3′,2′:4,5]furo(thieno)[3,2-d]pyrimidin-8-amines” (Molecules, 2019).
Values after ≈ are worked out from the molar mass of the structure shown. “Also recorded” adds a separate entry of the source.

Experiments:
Assay type in all cases: cell-based
[1] = tested on: DNA of tumor sarcoma 180 (S-180); assay: Influence on methylation of DNA of tumor sarcoma 180 in vitro (5-MC content); conditions: 3 × 10^−6 M compound, 24 h at 37 °C; for inhibition at 3 µM: reduction of 5-MC content vs S-180 control, read-out: Inhibition of the Level of DNA Methylation; for Content of Bases in DNA, 5-MC ± ζ: tumor homogenate, S-180 control 0.64 ± 0.02, seven determinations; for Effect on tumor DNA methylation (in words): S-180
Description: It is known that DNA methylation in cancer plays a variety of roles, helping to change the healthy regulation of gene expression to a disease pattern. DNA hypermethylation in neoplasia is a specific epigenetic sign that can guide the diagnosis and treatment of this disease. We studied the effect of synthesized substances on tumor DNA in vitro. After the incubation of tumor cells with the studied compounds, the isolated DNA was hydrolyzed to nitrogen bases. In the studied DNA, the nucleotide composition (guanine (G), cytosine (C), 5-methylcitosine (5-MC), adenine (A), thymine (T)) complied with the rules of Chargaff. Isolated DNA belonged to the AT type, and the amount of basic bases (G + C + 5-MC) within them was 42.24–44.64 mol %, which is typical for eukaryotic DNA. Almost the same content of basic bases (G, C, A, and T) was observed, while a clear difference between DNA samples was found only in relation to the content of 5-MC, which indicated the demethylating ability of the compounds.
The influence of synthesized compounds on the methylation of DNA of tumor sarcoma 180 (S-180) was studied in vitro. Transplanted S-180 was isolated from animals after slaughter by decapitation under ether narcosis. A 3 × 10^−6 M solution of compounds (solvent: carboxymethylcellulose) was added to the tumor homogenate (12.5 mL of a solution per 10 g of tumor), and the mixture was incubated for 24 h at 37 °C. After the incubation, tumor DNA was extracted using the phenol–chloroform method. Hydrolysis to the nitrogen bases was carried out in sealed glass ampoules in 85% formic acid at 176 °C for 1 h (0.1 mL of acid per 1 mg of DNA). The separation of nitrogen bases (guanine (G), cytosine (C), 5-methylcitosine (5-MC), adenine (A), and thymine (T)) was produced by thin-layer chromatography in the solvent n-butanol/water/ammonia. Spectrophotometry of the eluates of all bases was made against eluates from the respective control areas of the chromatograms. In our studies, the well-known antitumor drug doxorubicin (manufactured by EBEWE Pharma Ges.m.b.H. Nfg. KG, 4866 Unterach, Austria) was used as a standard preparation. The data were statistically processed using Student’s and Fischer’s tests (p < 0.05).

[2] = tested on: HeLa cells; assay: Cell viability (MTT) assay, HeLa; conditions: Homo sapiens, 72 h, read-out: IC50, antiproliferative activity
Description: (§1) Vero and HeLa cells were seeded in a 96-well culture plate at a density of 20,000 cells/well. The plates were preincubated in a 5% CO2/95% air-humidified atmosphere at 37 °C for 24 h to allow for adaptation of the cells prior to the addition of the test compounds. All compounds were dissolved in dimethyl sulfoxide (DMSO) prior to dilution (1 mg/mL stock solution). The 50% inhibitory concentration (IC50) was determined over a range of concentrations (0.5 μg/mL to 10 μg/mL). All cells were incubated for 72 h, and then cell viability was estimated using an MTT (3-(4,5-dimethylthiazol-2-yl)-2,5-diphenyltetrazolium bromide) assay, as previously described. Colorimetric measurements were performed on a microplate reader at 570 nm (Tecan Spectra II, Switzerland). The percentage of viable cells was calculated for each concentration as ((ODT/ODC) × 100), where ODT and ODC corresponded to the absorbance of the treated and control cells, respectively. The IC50 was calculated by using linear regression analysis.

[3] = tested on: Vero cells; assay: Cell viability (MTT) assay, Vero; conditions: Chlorocebus sabaeus, Vero (normal cells), 72 h, read-out: IC50, antiproliferative activity
Description: as §1

| IC50 [2] | Compound | inhibition at 3 µM [1] | Content of Bases in DNA, 5-MC ± ζ [1] | Effect on tumor DNA methylation (in words) [1] | IC50 [3] |
| --- | --- | --- | --- | --- | --- |
|  | c1coc(-c2nc3sc4c(N5CCCCC5)ncnc4c3c3c2CCCC3)c1 [Compound 5a, 5-(2-Furyl)-8-piperidin-1-yl-1,2,3,4-tetrahydropyrimido[4′,5′:4,5]thieno[2,3-c]isoquinoline] | 40.6% | 0.38 ± 0.02 mol % |  |  |
|  | CC(C)c1nc2oc3c(NCCN4CCOCC4)ncnc3c2c2c1COC(C)(C)C2 [Compound 7d] | 48.4% | 0.33 ± 0.01 mol % |  |  |
|  | CC(C)c1nc2sc3c(NCC4CCCO4)ncnc3c2c2c1COC(C)(C)C2 (stereo not shown) [Compound 7m, 5-Isopropyl-2,2-dimethyl-N-(tetrahydrofuran-2-ylmethyl)-1,4-dihydro-2H-pyrano[4″,3″:4′,5′]pyrido[3′,2′:4,5]thieno[3,2-d]pyrimidin-8-amine] | 37.5% | 0.40 ± 0.02 mol % |  |  |
|  | CC(C)CNc1ncnc2c1sc1nc(-c3ccco3)c3c(c12)CCCC3 [Compound 5d, 5-(2-Furyl)-N-isobutyl-1,2,3,4-tetrahydropyrimido[4′,5′:4,5]thieno[2,3-c]isoquinolin-8-amine] | 34.4% | 0.42 ± 0.03 mol % |  |  |
|  | CC(C)Cc1nc2oc3c(NCCCO)ncnc3c2c2c1COC(C)(C)C2 [Compound 7k] | 18.8% | 0.52 ± 0.01 mol % |  |  |
|  | CCN(CC)CCNc1ncnc2c1oc1nc(C(C)C)c3c(c12)CC(C)(C)OC3 [Compound 7c, N,N-Diethyl-N′-(5-isopropyl-2,2-dimethyl-1,4-dihydro-2H-pyrano[4″,3″:4′,5′]pyrido[3′,2′:4,5]furo[3,2-d]pyrimidin-8-yl)ethane-1,2-diamine] | 42.2% | 0.37 ± 0.01 mol % |  |  |
|  | COc1cccc2c1C(=O)c1c(O)c3c(c(O)c1C2=O)C[C@@](O)(C(=O)CO)C[C@@H]3O[C@H]1C[C@H](N)[C@H](O)[C@H](C)O1 [Doxorubicin, doxorubicin, reference compound] | 67.2% | 0.21 ± 0.01 mol % |  |  |
|  | CC(C)c1nc2oc3c(NCCCN(C)C)ncnc3c2c2c1COC(C)(C)C2 [Compound 7i] |  |  | did not affect DNA methylation; also recorded: loss of activity |  |
|  | CC(C)c1nc2oc3c(NCC4CCCO4)ncnc3c2c2c1COC(C)(C)C2 (stereo not shown) [Compound 7f, 5-Isopropyl-2,2-dimethyl-N-(tetrahydrofuran-2-ylmethyl)-1,4-dihydro-2H-pyrano[4″,3″:4′,5′]pyrido[3′,2′:4,5]furo[3,2-d]pyrimidin-8-amine] | 21.9% | 0.50 ± 0.02 mol % |  |  |
|  | COc1ccc(CCNc2ncnc3c2oc2nc(C(C)C)c4c(c23)CC(C)(C)OC4)cc1OC [Compound 7e, N-[2-(3,4-Dimethoxyphenyl)ethyl]-5-isopropyl-2,2-dimethyl-1,4-dihydro-2H-pyrano[4″,3″:4′,5′]pyrido[3′,2′:4,5]furo[3,2-d]pyrimidin-8-amine] | 56.2% | 0.28 ± 0.01 mol % |  |  |
| 8.4 ± 0.2 mg/L (≈ 20.8 µM) | CC1CCN(c2ncnc3c2sc2nc(-c4ccco4)c4c(c23)CCCC4)CC1 [Compound 5b, 5-(2-Furyl)-8-(4-methylpiperidin-1-yl)-1,2,3,4-tetrahydropyrimido[4′,5′:4,5]thieno[2,3-c]isoquinoline] | 60.9% | 0.25 ± 0.02 mol % |  | 16.8 ± 0.6 mg/L (≈ 41.5 µM) |
|  | CC(C)c1nc2oc3c(NCc4cccnc4)ncnc3c2c2c1COC(C)(C)C2 [Compound 7h] | 34.4% | 0.42 ± 0.02 mol % |  |  |
| 4.4 ± 0.3 mg/L (≈ 10.8 µM) | c1coc(-c2nc3sc4c(NCC5CCCO5)ncnc4c3c3c2CCCC3)c1 (stereo not shown) [Compound 5f, 5-(2-Furyl)-N-(tetrahydrofuran-2-ylmethyl)-1,2,3,4-tetrahydropyrimido[4′,5′:4,5]thieno[2,3-c]isoquinolin-8-amine] | 89.1% | 0.07 ± 0.02 mol % |  | 6.4 ± 0.4 mg/L (≈ 15.7 µM) |
|  | CCN(CC)CCNc1ncnc2c1sc1nc(-c3ccco3)c3c(c12)CCCC3 [Compound 5e, N,N-Diethyl-N′-[5-(2-furyl)-1,2,3,4-tetrahydropyrimido[4′,5′:4,5]thieno[2,3-c]isoquinolin-8-yl]ethane-1,2-diamine] | 28.1% | 0.46 ± 0.02 mol % |  |  |
|  | CCOC(=O)N1CCN(c2ncnc3c2sc2nc(C(C)C)c4c(c23)CC(C)(C)OC4)CC1 [Compound 7l, Ethyl 4-(5-isopropyl-2,2-dimethyl-1,4-dihydro-2H-pyrano[4″,3″:4′,5′]pyrido[3′,2′:4,5]thieno[3,2-d]pyrimidin-8-yl)piperazine-1-carboxylate] | 29.7% | 0.45 ± 0.03 mol % |  |  |
|  | CC(C)Cc1nc2oc3c(NCCO)ncnc3c2c2c1COC(C)(C)C2 [Compound 7j, 2-[(5-Isobutyl-2,2-dimethyl-1,4-dihydro-2H-pyrano[4″,3″:4′,5′]pyrido[3′,2′:4,5]furo[3,2-d]pyrimidin-8-yl)amino]ethanol] |  |  | did not affect DNA methylation; also recorded: no activity |  |
|  | CC(C)c1nc2oc3c(NCCO)ncnc3c2c2c1COC(C)(C)C2 [Compound 7a] |  | 0.85 ± 0.03 mol % |  |  |
|  | CC(C)c1nc2oc3c(NCc4ccco4)ncnc3c2c2c1COC(C)(C)C2 [Compound 7g, N-(2-Furylmethyl)-5-isopropyl-2,2-dimethyl-1,4-dihydro-2H-pyrano[4″,3″:4′,5′]pyrido[3′,2′:4,5]furo[3,2-d]pyrimidin-8-amine] | 40.6% | 0.38 ± 0.02 mol % |  |  |
| 5.4 ± 0.2 mg/L (≈ 14.1 µM) | CC(C)c1nc2oc3c(NCCN(C)C)ncnc3c2c2c1COC(C)(C)C2 [Compound 7b] | 62.5% | 0.24 ± 0.01 mol % |  | 13.7 ± 0.4 mg/L (≈ 35.7 µM) |
|  | c1coc(-c2nc3sc4c(N5CCOCC5)ncnc4c3c3c2CCCC3)c1 [Compound 5c, 5-(2-Furyl)-8-morpholin-4-yl-1,2,3,4-tetrahydropyrimido[4′,5′:4,5]thieno[2,3-c]isoquinoline] | 23% | 0.49 ± 0.02 mol % |  |  |
